IC50 data for one compound are collected here from ChEMBL document CHEMBL2321863, “Novel Inverse Binding Mode of Indirubin Derivatives Yields Improved Selectivity for DYRK Kinases” (ACS Med Chem Lett, 2013).

As usually defined, the pIC50 is −log10 of the IC50, conventionally taken in molar units. High values mean a small IC50, low ones a large IC50.

pIC50: −log10 of the molar value.

In this assay the target is Glycogen synthase kinase 3 beta (Sus scrofa, UniProt B2LUN4). Kind of assay: Inhibition of porcine brain GSK3beta using YRRAAVPPSPSLSRHSSPHQSpEDEEE as substrate.
Sequence of Glycogen synthase kinase 3 beta (B2LUN4 whole entry): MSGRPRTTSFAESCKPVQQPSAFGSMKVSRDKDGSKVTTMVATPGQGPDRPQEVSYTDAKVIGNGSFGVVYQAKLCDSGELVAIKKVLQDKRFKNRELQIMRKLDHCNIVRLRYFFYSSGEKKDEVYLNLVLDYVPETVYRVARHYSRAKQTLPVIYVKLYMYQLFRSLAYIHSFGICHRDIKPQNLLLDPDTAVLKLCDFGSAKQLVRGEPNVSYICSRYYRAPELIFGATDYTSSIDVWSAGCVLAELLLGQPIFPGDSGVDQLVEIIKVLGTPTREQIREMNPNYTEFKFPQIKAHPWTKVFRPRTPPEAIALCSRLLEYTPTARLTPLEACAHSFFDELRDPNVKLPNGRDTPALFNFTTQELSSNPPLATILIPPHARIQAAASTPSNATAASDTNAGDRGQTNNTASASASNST

As to `Cn1c(O)c(-c2[nH]c3ccccc3c2N=O)c2cccc(Br)c21`, the pIC50 was < 5.00.
